Data taken from PubChem BioAssay AID504882 (Broad Institute, 2011).
Results filed as inconclusive are left out. Calls of active or inactive are those of the source. No rule for the calls is given here.

System: EBV lymphoblastoid cells (LCL) viability, plate reader
Experiment: cytotoxicity in EBV lymphoblastoid cells, dose response, cytotoxicity control, cell-based, plate reader, cherry-picks, set 2 (AID 504882)

Row | SMILES | AC50
1 | COc1ccc(/C=N/Nc2cc(C)nc3ccc(OC)cc23)c(OC)c1 | 3.47 µM
2 | Oc1c(N=NC(=S)Nc2ccccc2F)c2ccccc2n1Cc1cccc(Cl)c1 | > 19.5 µM (inactive)
3 | COc1ccc(/C=C/c2nc3ccccc3n2C)cc1 | 3.28 µM
4 | CC(=NNc1nc2ccccc2o1)c1cc2ccccc2cn1 | 0.154 µM
5 | CC(=O)OC1CCC2(C)C(CCC3C4CC=C(C(C)=O)C4(C)OC(=O)CC32)C1 (stereo unspecified) | 3.85 µM
6 | Oc1cccc2ccc(Nc3ccccn3)nc12 | 6.35 µM
7 | CCn1c2ccccc2c2cc(/C=N/n3cnnc3)ccc21 | 10.7 µM
8 | c1ccc(C(=NNc2nc3ccccc3s2)c2ccccn2)cc1 | 1.06 µM
9 | CC(C)OC(=O)c1ccc(NCc2cc(O)ccc2O)cc1Cl | 5.06 µM
10 | Oc1c(C(Nc2nc3ccccc3s2)c2ccco2)ccc2cccnc12 (stereo unspecified) | 2 µM
11 | C/C(=N\NC(=O)c1cccc(Br)c1)c1ccccn1 | 0.803 µM
12 | COc1ccc(Cn2c(SCc3cc(C)ccc3C)nc3cc(OC)c(OC)cc3c2=N)cc1 | 6.5 µM
13 | Cn1c(/C=C/c2ccccc2)nc2ccccc21 | 13.9 µM
14 | c1ccc(C2=NNC(=NC3CC3)SC2)cc1 | 11.9 µM
15 | O=C(Nc1nnc(SCc2ccc(F)cc2)s1)c1ccccn1 | 14.1 µM
16 | CC(=NNC(=S)Nc1ccccc1)c1ccccn1 | 0.068 µM
17 | Cc1onc(-c2ccccc2)c1C(=O)NC(=S)NNC(=O)c1ccc(O)cc1O | > 19.5 µM (inactive)
18 | CNc1cccnc1C=NNC(N)=S | 7.97 µM
19 | NC(=S)NN=Cc1nccc2c(C(F)(F)F)cccc12 | 1.15 µM
20 | CC(=NNC(=S)N1CCCC1)c1ccccn1 | 0.037 µM
21 | C#CCN(C[C@@H]1[C@@H](OC(=O)NCCCCCC)[C@@H](OC(=O)NCCCCCC)Cn2c(=O)ccc(=O)n21)S(=O)(=O)c1ccc(C)cc1 | 3.98 µM
22 | O=C(Nc1nc(-c2ccccn2)cs1)c1ccc(Br)s1 | 1.29 µM
23 | O=c1cc(-c2ccccc2)oc2ccc3ccccc3c12 | 8.53 µM
24 | C#Cc1cc(N2CCN(C(=O)c3ccoc3)CC2)n2nc(-c3cccc(Cl)c3)cc2n1 | 10.4 µM

Row | SMILES | AC50
25 | O=S(=O)(c1ccc2c(c1)C(=NO)c1cc(S(=O)(=O)N3CCCCC3)ccc1-2)N1CCCCC1 | 1.2 µM
26 | CCN(CC)S(=O)(=O)c1ccc(N/N=C/c2ccc(O)cc2O)nc1 | 3.31 µM
27 | CC(=NNC(=S)Nc1ccccc1Cl)c1ccccn1 | 0.055 µM
28 | O=C(CCl)N(c1ccc(Cl)cc1)c1c[nH]c2ccccc12 | 3.35 µM
29 | COc1ccc(Cc2nnc(N/N=C/c3ccc(O)cc3)[nH]c2=O)cc1OC | 4.05 µM
30 | O=C(Nc1ccc(N2CCOCC2)cc1)c1cn2ccccc2n1 | 10.9 µM
31 | C=CCn1c(C)c(C(C)=O)c(N2CCN(C(c3ccccc3)c3ccccc3)CC2)nc1=S | > 19.5 µM (inactive)
32 | CC(=O)c1ccc(-c2nc3c4ccccc4ccn3c2C(C)=O)o1 | 0.371 µM
33 | CC(=O)Nc1nc(C)c(-c2csc(Nc3ccc(O)cc3)n2)s1 | 19.4 µM
34 | CCc1cc(C(=O)Nc2ncccc2O)sc1C | > 19.5 µM (inactive)
35 | O=C(NC(c1ccc(Cl)cc1)c1cc(Cl)c2cccnc2c1O)c1cccnc1 (stereo unspecified) | 4.72 µM
36 | CCCC(=O)NC(c1ccc(C(C)C)cc1)c1ccc2cccnc2c1O (stereo unspecified) | 1.74 µM
37 | COc1nc(Nc2nc3ccccc3c(=O)[nH]2)nc2ccc(C)cc12 | 2.23 µM
38 | CCCN(CCC)S(=O)(=O)c1ccc(C(=O)Nc2nnc(-c3cc(OC)cc(OC)c3)o2)cc1 | > 19.5 µM (inactive)
39 | O=C(NC(Nc1nc2ccc([N+](=O)[O-])cc2s1)(C(F)(F)F)C(F)(F)F)c1ccccc1 | 0.298 µM
40 | COc1ccc(N/N=C/c2c(C(=O)O)ccc3ccccc23)cc1 | 3.99 µM
41 | COc1ccc(O)c(/C=N/NC(=O)c2ccc(OCc3cccc(Br)c3)cc2)c1 | 4.03 µM
42 | Cc1ccc(C(=O)Nc2sc(Cc3ccc4c(c3)OCO4)c(C)c2C(N)=O)cc1 | 19.2 µM
43 | CCn1c2ccccc2c2cc(/C=N/n3cn[nH]c3=S)ccc21 | 3.79 µM
44 | Cc1oc2c(c1C(=O)c1ccc(Cl)cc1)C(=O)C(=O)c1ccccc1-2 | 5.51 µM
45 | CCN1CCN(Cc2ccc(NC(=O)c3ccc(C)c(/C=C/c4cnc(Nc5cc(N6CCNCC6)nc(C)n5)cn4)c3)cc2C(F)(F)F)CC1 | 9.23 µM
46 | O=c1c2c(nc3c(-c4cccc(Br)c4)c[nH]n13)CCCC2 | 11 µM
47 | NC(=S)NN=Cc1nccc2c(N)cccc12 | 1.04 µM
48 | CC(=NNC(=S)N1CCCCCC1)c1ccccn1 | 0.354 µM

Row | SMILES | AC50
49 | COc1ccc(-c2nc(-c3cccs3)no2)cc1 | > 19.5 µM (inactive)
50 | CC(=NNC(=S)N1CCN(c2ccccn2)CC1)c1nccs1 | 0.429 µM
51 | COc1ccccc1/C=C/C(=O)c1ccc(Cl)cc1 | > 19.5 µM (inactive)
52 | CCNc1ccc(Br)cc(C(=O)/C=C/c2ccccc2Cl)c1=O | 15.3 µM
53 | COc1ccc(-c2[nH]ncc2-c2ccc3c(c2)OCCO3)c(O)c1 | > 19.5 µM (inactive)
54 | Cn1nnnc1N=N/C(=N/Nc1ccccc1)c1ccccc1 | 1.71 µM
55 | COc1cc(C=C2CCCC(=Cc3ccc(OCC4CO4)c(OC)c3)C2=O)ccc1OCC1CO1 (stereo unspecified) | 5.45 µM
56 | NC(Cc1ccc(O)cc1)C(=O)NN=Cc1ccc(N(CCCl)CCCl)cc1 (stereo unspecified) | 0.983 µM
57 | O=C(CCc1ccccc1)NC(c1cccs1)c1cc(Cl)c2cccnc2c1O (stereo unspecified) | 7.03 µM
58 | Nc1ccn([C@@H]2O[C@H](CO)[C@@H](O)C2O)c(=O)n1 (stereo partly specified) | 1.1 µM
59 | CCn1c2ccccc2c2cc(/C=N/NC(=O)c3ccccc3)ccc21 | 1.52 µM
60 | CCn1c2ccccc2c2cc(/C=C(/C#N)C(N)=S)ccc21 | 0.998 µM
61 | O=Cc1ccc(-c2cccs2)s1 | 11.8 µM
62 | O=C(N/N=C/c1c(O)ccc2ccccc12)c1ccc(Br)o1 | 6.22 µM
63 | CCNc1ccc(Br)cc(C(=O)/C=C/c2c(Cl)cccc2Cl)c1=O | 13.8 µM
64 | COc1ccc(-c2ccc(NC(=O)c3ccco3)cc2)nn1 | 4.42 µM
65 | CCCCC(=O)NC(c1cccc([N+](=O)[O-])c1)c1ccc2cccnc2c1O (stereo unspecified) | 5.14 µM
66 | C=CCn1c(O)c(N=NC(=S)Nc2ccccc2F)c2ccccc21 | 10.2 µM
67 | O=C(N/N=C/c1ccc(O)cc1O)c1ccc(CN2C(=O)c3cccc4cccc2c34)cc1 | 3.53 µM
68 | COc1ccccc1-c1nc(-c2ccccn2)no1 | 10.8 µM
69 | CC(C)C(=O)NC(c1ccc(Cl)cc1Cl)c1ccc2cccnc2c1O (stereo unspecified) | 2.28 µM
70 | Cc1cc(C)nc(SCc2ccc(C(=O)N/N=C/c3cccc(O)c3O)cc2)n1 | 10.9 µM
71 | N#Cc1c(Oc2ccc3ccccc3c2)sc(C(=O)c2ccccc2)c1N | 20 µM
72 | Oc1cccc(C(Nc2nccs2)c2ccc3cccnc3c2O)c1 (stereo unspecified) | 11.4 µM

Row | SMILES | AC50
73 | CN(C)c1ccc(C=Cc2ccnc3c(O)cccc23)cc1 | 10.5 µM
74 | CCN(CC)c1ccc(/C=N/NC(=O)c2ccc3nc[nH]c3c2)c(O)c1 | 4.14 µM
75 | COc1ccccc1-c1nnc(Sc2nc([N+](=O)[O-])nn2C)o1 | 8.25 µM
76 | Nc1ccc(C(=O)N/N=C\c2cc(N=Nc3cccc4ccccc34)ccc2O)cc1 | 10.7 µM
77 | O=C(c1ccccc1)C(CCC(CN1CCOCC1)C(=O)c1ccccc1)CN1CCOCC1 (stereo unspecified) | 7.73 µM
78 | COc1ccccc1[C@]1(C)ON(c2ccccc2C(F)(F)F)C1=O | 16.7 µM
79 | CC(=NNc1nc2ccccc2o1)c1ncccn1 | 0.384 µM
80 | COc1cccc(/C=N/Nc2ncnc(Cl)c2N)c1O | 3.73 µM
81 | N#CC(C#N)=NNc1ccc(-n2ccc(C(F)(F)F)n2)cc1 | 2.53 µM
82 | Cc1sc2ncnc(N/N=C/c3ccccc3O)c2c1C | 3.59 µM
83 | CN1CCN(/N=C/c2ccc(N(c3ccccc3)c3ccccc3)cc2)CC1 | 0.354 µM
84 | COc1cccc(/C=N/Nc2ncnc3c2ncn3Cc2ccccc2)c1O | 2.21 µM
85 | Cc1cccc(-n2ncc(Cl)c(Cl)c2=O)c1 | 1.59 µM
86 | CCC(=O)NC(c1cc(Cl)c2cccnc2c1O)C(C)C (stereo unspecified) | 6.78 µM
87 | Cc1ccc2[nH]c3c(c2c1)CCCC3NC(=O)CCl (stereo unspecified) | 1.41 µM
88 | COc1ccc(-c2nnc(NC(=O)c3ccc(S(=O)(=O)N4CCCc5ccccc54)cc3)o2)cc1 | 15 µM
89 | COc1cccc(/C=N/Nc2nccnc2Cl)c1O | 3.86 µM
90 | O=C(Nc1ccc(C(=O)N2CCOCC2)cc1)Nc1cccc(C(F)(F)F)c1 | > 19.5 µM (inactive)
91 | COc1cccc(/C=N/Nc2nc3ccccc3[nH]2)c1O | 4.42 µM
92 | COc1ccc(-n2nc(C(=O)c3cccs3)cc(-c3nc4ccccc4[nH]3)c2=N)cc1 | 8.9 µM
93 | CCCc1cc(=O)n2[nH]cc(-c3ccc(Cl)cc3)c2n1 | 8.45 µM
94 | C=CCn1c(O)c(N=NC(=S)Nc2cccc(C)c2)c2ccccc21 | 2.48 µM
95 | Cc1csc(N=Nc2ccc(N(C)C)cc2)[n+]1[O-] | 7.33 µM
96 | COc1cc(C(=O)Oc2ccccc2/C=N/NC(=O)c2ccc(C)c(Cl)c2)cc(OC)c1OC | 12.7 µM
